Where “and” joins values, the source holds several entries; their conditions need not be identical. Equal values may be shown once. Where a name gives a salt, the structure may show the parent alone. Read-outs that look alike come from different tables or passages of the source.
Tests used:
A549-ACE2 cells = assay: cells; assay type: cell-based; conditions: A549-ACE2, 24 h, read-out: PLD_Effect(%) A549-ACE2
[1] = cited from earlier work
Vero-E6 cells = assay: cells; assay type: cell-based
SARS-CoV-2 [2] = conditions: Caco-2, 20 µM; cited from earlier work
SARS-CoV-2 [3] = conditions: 10 µM; cited from earlier work
[4] = value is the negative log10 of mol/L
[5] = Chlorocebus sabaeus, Vero C1008, 24 h, read-out: PLD_Effect(%) VERO-E6
[6] = Chlorocebus sabaeus, Vero C1008, 24 h; read-out: PLD Effect in % 5 µM
[7] = Chlorocebus sabaeus, Vero C1008, 24 h; read-out: PLD Effect in % 10 µM
[8] = Chlorocebus sabaeus, Vero C1008, 24 h; read-out: PLD Effect in % 20 µM
[9] = Chlorocebus sabaeus, Vero C1008, read-out: PLD EC50 µM

In the case of `O=S(=O)(NCCNC/C=C/c1ccc(Br)cc1)c1cccc2cnccc12` [H-89], the activation at 10 µM (A549-ACE2 cells) is listed as 98.9%, the IC50 ([1]; read-out: IC50 (value)) is listed as 590 nM and the Kd ([1]; read-out: Kd (value)) is listed as 24 nM. The “pchembl_value (Kd)” value [1, 4] was 7.62 and the activation at 10 µM (Vero-E6 cells; [5]) was 60.8%.
In the case of `CN1CCCN(C(c2ccccc2)c2ccc(Cl)cc2)CC1` (centres unmarked) [Homochlorcyclizine?2HCl], the activation at 10 µM (A549-ACE2 cells) is listed as 69.6%, the “pchembl_value (AC50)” value [1] is listed as 6.64 and 7.14 and 6.83 and the activation at 10 µM (Vero-E6 cells; [5]) is listed as 82.5%.
In the case of `CN(C(=O)Cc1ccc(Cl)c(Cl)c1)[C@H](CN1CCCC1)c1ccccc1` [ICI-199441], the activation at 10 µM (A549-ACE2 cells) is given as 99.8%, the IC50 ([1]; read-out: IC50 (value)) is given as 26 nM and the “pchembl_value (IC50)” value [1, 4] is given as 7.58. The activation at 10 µM (Vero-E6 cells; [5]) was 53.5%.
For `N[C@H]1CC[C@H](N[C@@H]2C[C@H]2c2ccccc2)CC1` [ORY-1001 (RG-6016) 2HCl], the activation at 10 µM (A549-ACE2 cells) is given as 98.4%, the Ki [1] is given as 50 nM and the pchembl_value [1] is given as 9.85 and 7.30 and 7.48. It also gave an activation at 10 µM (Vero-E6 cells; [5]) of 65.7%.
For `CC(CN1c2ccccc2Sc2ccccc21)N(C)C` (centres unmarked) [PROMETHAZINE HYDROCHLORIDE], the activation at 10 µM (A549-ACE2 cells) is given as 96.5%, the AC50 [1] is given as 30 nM and the activation at 10 µM (Vero-E6 cells; [5]) is given as 55.4%.
In the case of `CCCOC(C(=O)OC1CCN(C)CC1)(c1ccccc1)c1ccccc1` [Propiverine Hydrochloride], the activation at 10 µM (A549-ACE2 cells) is listed as 102%, the “pchembl_value (AC50)” value [1] is listed as 6.08 and 6.12 and the AC50 ([1]; read-out: AC50 (value)) is listed as 830 nM and 750 nM. It also gave an activation at 10 µM (Vero-E6 cells; [5]) of 63.8%.
In the case of `CN1CCN(C(=O)CN[C@@H]2C[C@H]2c2ccc(OCc3ccccc3)cc2)CC1` [RN-1], the activation at 10 µM (A549-ACE2 cells) is listed as 70.6%, the “pchembl_value (IC50)” value [1, 4] is listed as 8.51 and 6.29 and the activation at 10 µM (Vero-E6 cells; [5]) is listed as 87.7%.
For `C=CCN(C)CCCCCCOc1ccc(C(=O)c2ccc(Br)cc2)c(F)c1` [Ro 48-8071 (fumarate)], the activation at 10 µM (A549-ACE2 cells) is listed as 102%, the “Log IC50 (value)” value [1] is listed as -8.19 and the “pIC50 (value)” value [1] is listed as 6.65. For the same compound, the “pchembl_value (Log IC50)” value [1] was 8.19, the “pchembl_value (pIC50)” value [1] was 6.65 and the activation at 10 µM (Vero-E6 cells; [5]) was 92.9%.
For `CCN(CC)CCO[C@H]1CC[C@@]2(C)C(=CC[C@@H]3[C@@H]2CC[C@]2(C)C(=O)CC[C@@H]32)C1` [U-18666A, reference compound], the “CaCo2 CPE inhibition %” value (SARS-CoV-2 [2]) is listed as 77.44%, the “PLD Effect in % 5 µM” value (Vero-E6 cells; 5 µM) is listed as 84.91% and the “PLD Effect in % 10 µM” value (Vero-E6 cells; 10 µM) is listed as 98.22%. The “PLD Effect in % 20 µM” value (Vero-E6 cells; 20 µM) was 112.55% and the EC50 (Vero-E6 cells; read-out: PLD EC50) was 1.77 µM.
For `COc1cc2c(NC3CCN(C(C)C)CC3)nc(C3CCCCC3)nc2cc1OCCCN1CCCC1` [UNC0638], the activation at 10 µM (A549-ACE2 cells) is listed as 112%, the “pchembl_value (type IC50), Histone-lysine N-methyltransferase, H3 lysine-9 specific 3” value [1] is listed as 7.26 and 7.82 and 7.92 and the “pchembl_value (type IC50), Histone-lysine N-methyltransferase, H3 lysine-9 specific 5” value [1] is listed as 7.72. The “pchembl_value (type Ki), Histone-lysine N-methyltransferase, H3 lysine-9 specific 3” value [1] was 8.43 and 7.75, the IC50 ([1]; read-out: IC50 (value), Histone-lysine N-methyltransferase, H3 lysine-9 specific 3) was 55 nM and 15 nM and the IC50 ([1]; read-out: IC50 (value), Histone-lysine N-methyltransferase, H3 lysine-9 specific 5) was 19 nM. For the same compound, the IC50 ([1]; read-out: IC50 (value), Lysine-specific histone demethylase 1) was 180 nM, the Ki ([1]; read-out: Ki (value), Histone-lysine N-methyltransferase, H3 lysine-9 specific 3) was 3.7 nM and the “pchembl_value (type IC50), Lysine-specific histone demethylase 1” value [1, 4] was 6.75. For the same compound, the activation at 10 µM (Vero-E6 cells; [5]) was 60.7%.
For `Cn1ncc(Cl)c1-c1cc(C(=O)N[C@H](CN)Cc2ccc(F)c(F)c2)oc1Cl` [Uprosertib], the activation at 10 µM (A549-ACE2 cells) is listed as 92%, the IC50 ([1]; read-out: IC50 (value)) is listed as 339 nM and the “pchembl_value (IC50)” value [1, 4] is listed as 6.47. It also gave an activation at 10 µM (Vero-E6 cells; [5]) of 82.6%.
For `O=C(NCCN1CCC2(CC1)C(=O)NCN2c1cccc(F)c1)c1ccc2ccccc2c1` [VU-0364739], the activation at 10 µM (A549-ACE2 cells) is given as 113%, the IC50 ([1]; read-out: IC50 (value)) is given as 20 nM and the “pchembl_value (IC50)” value [1, 4] is given as 7.70. It also gave an activation at 10 µM (Vero-E6 cells; [5]) of 55.1%.
For `OCCNC1CCCc2c1[nH]c1ccc(-c3ccccc3)cc21` (centres unmarked) [casin, reference compound], the “CaCo2 CPE inhibition %” value (SARS-CoV-2 [2]) is given as 71.19%, the “PLD Effect in % 5 µM” value (Vero-E6 cells; 5 µM) is given as 116.35% and the “PLD Effect in % 10 µM” value (Vero-E6 cells; 10 µM) is given as 193.97%. For the same compound, the “PLD Effect in % 20 µM” value (Vero-E6 cells; 20 µM) was 134.63% and the EC50 (Vero-E6 cells; read-out: PLD EC50) was 3.31 µM.
For `Cc1cccc(C)c1NC(=O)CN1CCN(CCCC(c2ccc(F)cc2)c2ccc(F)cc2)CC1` [lidoflazine, reference compound], the “Vero-E6 CPE inhibition %” value (SARS-CoV-2 [3]) is given as 0.5%, the activation at 10 µM (A549-ACE2 cells) is given as 90.9% and the activation at 10 µM (Vero-E6 cells; [5]) is given as 52.6%. The activation at 5 µM (Vero-E6 cells; [6]) was 65.3%, the activation at 10 µM (Vero-E6 cells; [7]) was 80.2% and the activation at 20 µM (Vero-E6 cells; [8]) was 129%. For the same compound, the EC50 (Vero-E6 cells; [9]) was 5.51 µM.
In the case of `OC(c1cc(C(F)(F)F)nc2c(C(F)(F)F)cccc12)C1CCCCN1` (centres unmarked) [mefloquine hydrochloride, reference compound], the “Vero-E6 CPE inhibition %” value (SARS-CoV-2 [3]) is given as -0.32%, the activation at 5 µM (Vero-E6 cells; Chlorocebus sabaeus, Vero C1008, 24 h, read-out: PLD Effect in % 5 µM) is given as 102% and the activation at 10 µM (Vero-E6 cells; Chlorocebus sabaeus, Vero C1008, 24 h, read-out: PLD Effect in % 10 µM) is given as 188%. For the same compound, the activation at 20 µM (Vero-E6 cells; Chlorocebus sabaeus, Vero C1008, 24 h, read-out: PLD Effect in % 20 µM) was 174% and the EC50 (Vero-E6 cells; [9]) was 1.48 µM.
In the case of `CCN(CC)CCCC(C)Nc1c2ccc(Cl)cc2nc2ccc(OC)cc12` (centres unmarked) [quinacrine hydrochloride, reference compound], the “Vero-E6 CPE inhibition %” value (SARS-CoV-2 [3]) is given as -0.23%, the activation at 5 µM (Vero-E6 cells; [6]) is given as 145% and the activation at 10 µM (Vero-E6 cells; [7]) is given as 141%. It also gave an activation at 20 µM (Vero-E6 cells; [8]) of -13.2% and an EC50 (Vero-E6 cells; [9]) of 1.55 µM.
For `C[C@@H]1CN(CCCn2c3ccccc3c3ccccc32)C[C@H](C)N1` [rimcazole], the activation at 10 µM (A549-ACE2 cells) is listed as 109%, the “Log IC50 (value)” value [1] is listed as -6.23 and the “pchembl_value (Log IC50)” value [1] is listed as 6.23. For the same compound, the Ki ([1]; read-out: Ki (value)) was 908 nM, the “pchembl_value (Ki)” value [1, 4] was 6.04 and the activation at 10 µM (Vero-E6 cells; [5]) was 99.9%.
